Experimental findings from US20220324835A1 (Nurix Therapeutics, Inc., priority 2018, published 2022) are described below.

What all share (type): cell-based
For one experiment, the system named is primary human B cells. The experiment can be described thus: B cell activation assay (CD69 on anti-IgM stimulated B cells). Conditions: AUC of dose response curve (10 μM to 1 nM) of CD69 MFI normalized to DMSO control. As for the experimental part:
Peripheral blood mononuclear cells (PBMC) were obtained either: 1) by using Ficoll-Paque™ (GE Healthcare) for separation of peripheral blood hematopoietic cells from buffy coats of healthy human donors; or 2) directly from LeukoPak donations. Human primary B cells were isolated from the PBMCs utilizing negative selection with commercial kits following the manufacturer's protocol (StemCells Catalog #17954) to yield >95% CD20+ cells assessed by flow cytometry. Primary human B cells were plated at 0.7-1×10^5 per well in a 96-well plate with Cbl-b inhibitors over a dose ranging from 10 μM to 1 nM and incubated at 37° C. 5% CO2, with a final DMSO concentration of <0.5%. Cells were stimulated with anti-IgM for 20 hours at 37° C. 5% CO2. Surface activation markers on mature CD20^+ IgD^+ B cells were monitored by FACS using an anti-CD69 antibody (BD Biosciences).
Cbl-b inhibitors were tested to determine their ability to induce or enhance surface expression of cell surface markers on B cells (e.g., CD69), which is indicative of B cell activation.
Readouts were reported as area under curve (AUC) of the dose response curve of CD69 mean fluorescence intensity (MFI) normalized to the DMSO control. Baseline for this study was the measurement obtained from primary human B cells treated with DMSO in the presence of 2.5 μg/mL of anti-IgM-F(ab′)2. […] Compounds were ranked into bins according to their readouts as follows: A indicates ≤0.5, B indicates 0.5-1.00, C indicates 1.01-1.50, and D indicates ≥1.51.

For another experiment, the system named is anergic human T-cells. Kind of experiment: Anergic T-cell activation assessed by IFNγ secretion (ionomycin-induced anergy). Conditions: anergic T-cells re-challenged with anti-CD3 and anti-CD28 for 24 hours, read-out: IFNγ Fold change from baseline. An excerpt: Peripheral blood mononuclear cells (PBMC) were obtained either: 1) by using Ficoll-Paque™ (GE Healthcare) for separation of peripheral blood hematopoietic cells from buffy coats of healthy human donors; or 2) directly from LeukoPak donations. Total human primary T-cells were isolated from the PBMCs utilizing negative selection with commercial kits following the manufacturer's protocol (Miltenyi Catalog #130-096-535 (i.e., cocktail of antibodies against surface markers CD14, CD15, CD16, CD19, CD34, CD36, CD56, CD123 and CD235a were incubated with the PBMCs before passing the samples by magnetic beads for removal of cells expressing those surface markers) or StemCells Catalog #17951) to yield >95% CD3+ cells assessed by flow cytometry. The cells were activated with immobilized anti-CD3 antibody (OKT3) and soluble anti-CD28 antibody (28.2) for two days at which time they are washed and allowed to rest for three days in the absence of stimulation. They were then treated with ionomycin (Sigma) for 18-24 hours to induce anergy. Following two washes to remove the ionomycin from the samples, Cbl-b inhibitor compounds were added to the cells at the indicated concentrations (e.g. 10, 1.11 and 0.37 μM) and incubated for 1 hour. The cells were then re-challenged with anti-CD3 antibody and anti-CD28 antibody for 24 hours at which point cell free supernatants were collected and assessed for cytokines (e.g., IFNγ) by ELISA (R&D Systems or Peprotech) or Luminex multiplex kits (Procarta Life Technologies) following manufacturer's protocols.
Cbl-b inhibitors were tested to determine their ability to induce or enhance secretion of cytokines from anergic T-cells (e.g. IFNγ), which is indicative of decreased T-cell tolerance.
Readouts were reported as fold change over baseline. Baseline for this study was the measurement obtained from anergic human T-cells stimulated with immobilized anti-CD3 and soluble anti-CD28, wherein the T-cells were not incubated with a Cbl-b inhibitor (Table 7). For IFNγ changes greater than 2.5-fold over baseline were considered a positive response (Table 7). Compounds were ranked into bins according to their readout as follows for IFNγ: A indicates ≤2.50, B indicates 2.51-4.00 and C indicates >4.01.

The test system of experiment [1] is T-cell. The experiment can be described thus: CD25 cell surface staining on T-cells stimulated with anti-CD3 antibody alone (Biological Example 2). Conditions: primary human total T-cells, baseline = anti-CD3/anti-CD28 stimulated cells without inhibitor, read-out: CD25 staining, Anti-CD3 stimulation, fold change over baseline; for fold induction at 1 µM: 1 μM compound; for fold induction at 8 µM: 8 μM compound.

Experiment [2] concerns T-cell. Kind of experiment: IL-2 secretion from T-cells stimulated with anti-CD3 antibody alone (Biological Example 2). Conditions: primary human total T-cells, read-out: IL-2 secretion, Anti-CD3 stimulation, fold change over baseline; for fold induction at 1 µM: 1 μM compound; for fold induction at 8 µM: 8 μM compound.

With `C[C@H](Cc1nncn1C)c1cccc(NC(=O)c2cccc(C(F)(F)F)n2)c1` [Compound 183a, (R)-N-(3-(1-(4-methyl-4H-1,2,4-triazol-3-yl)propan-2-yl)phenyl)-6-(trifluoromethyl)picolinamide], the “CD69 MFI AUC” value in the experiment with primary human B cells is recorded as “C (C indicates 1.01-1.50)”. In the experiment on anergic human T-cells, the fold induction at 0.37 µM was ≤ 2.5, the fold induction at 1.11 µM fell in the range of 2.51 to 4 and the fold induction at 10 µM is ≤ 2.5.
For `Cc1cc(C(=O)Nc2cccc([C@H](C)Cc3nncn3C)c2)nc(C2CC2)n1` [Compound 195, (R)-2-cyclopropyl-6-methyl-N-(3-(1-(4-methyl-4H-1,2,4-triazol-3-yl)propan-2-yl)phenyl)pyrimidine-4-carboxamide], in the experiment with primary human B cells, the “CD69 MFI AUC” value is “D (D indicates ≥1.51)”. Further, in the experiment with anergic human T-cells, the fold induction at 0.37 µM is ≤ 2.5, the fold induction at 1.11 µM is ≤ 2.5 and the fold induction at 10 µM is ≤ 2.5.
In the case of `C[C@H](Cc1nncn1C)c1cccc(N2Cc3c(cccc3C(F)(F)F)C2=O)c1` [Compound 255a, (R)-2-(3-(1-(4-methyl-4H-1,2,4-triazol-3-yl)propan-2-yl)phenyl)-4-(trifluoromethyl)isoindolin-1-one], the “CD69 MFI AUC” value in the experiment on primary human B cells is “C (C indicates 1.01-1.50)”. For the same compound, in the experiment with anergic human T-cells, the fold induction at 0.37 µM was ≤ 2.5, the fold induction at 1.11 µM fell in the range of 2.51 to 4 and the fold induction at 10 µM is ≤ 2.5.
Take `Cn1cnnc1CC1(c2cccc(N3Cc4c(cc(CN5CC[C@H](F)C5)cc4C(F)(F)F)C3=O)c2)COC1` [Compound 410, 6-{[(3S)-3-fluoropyrrolidin-1-yl]methyl}-2-(3-{3-[(4-methyl-4H-1,2,4-triazol-3-yl)methyl]oxetan-3-yl}phenyl)-4-(trifluoromethyl)-2,3-dihydro-1H-isoindol-1-one]: in the experiment on T-cell [1], the fold induction at 1 µM was > 1 and the fold induction at 8 µM is > 1. Further, in the experiment with T-cell [2], the fold induction at 1 µM is > 0.201 and the fold induction at 8 µM is > 0.201.
On to `Cn1cnnc1CC1(c2cccc(N3Cc4c(cc(CN5CC[C@@H](C#N)C5)cc4C(F)(F)F)C3=O)c2)COC1` [Compound 421, (R)-1-((2-(3-(3-((4-methyl-4H-1,2,4-triazol-3-yl)methyl)oxetan-3-yl)phenyl)-3-oxo-7-(trifluoromethyl)isoindolin-5-yl)methyl)pyrrolidine-3-carbonitrile], for which, in the experiment on T-cell [1], the fold induction at 1 µM is > 1 and the fold induction at 8 µM was > 1. Further, in the experiment on T-cell [2], the fold induction at 1 µM is 0.101 to 0.15 and the fold induction at 8 µM was > 0.201.
On to `Cn1cnnc1CC1(c2cccc(N3Cc4c(cc(CN5C[C@H]6C[C@H]6C5)cc4C(F)(F)F)C3=O)c2)COC1` [Compound 429, 6-(((1R,5S)-3-azabicyclo[3.1.0]hexan-3-yl)methyl)-2-(3-(3-((4-methyl-4H-1,2,4-triazol-3-yl)methyl)oxetan-3-yl)phenyl)-4-(trifluoromethyl)isoindolin-1-one], for which, in the experiment on T-cell [1], the fold induction at 1 µM is > 1 and the fold induction at 8 µM was > 1. In the experiment with T-cell [2], the fold induction at 1 µM was > 0.201 and the fold induction at 8 µM is > 0.201.
For `Cn1cnnc1CC1(c2cccc(N3Cc4c(cc(CN5CCC[C@H](F)C5)cc4C(F)(F)F)C3=O)c2)COC1` [Compound 432, 6-{[(3S)-3-fluoropiperidin-1-yl]methyl}-2-(3-{3-[(4-methyl-4H-1,2,4-triazol-3-yl)methyl]oxetan-3-yl}phenyl)-4-(trifluoromethyl)-2,3-dihydro-1H-isoindol-1-one], the values for the fold induction at 1 µM in the experiment on T-cell [1] and in the experiment with T-cell [2] were > 1 and > 0.201, respectively.
As to `Cn1cnnc1C(F)(F)[C@](C)(F)c1cccc(N2Cc3c(cc(CN4CC[C@H](F)C4)cc3C(F)(F)F)C2=O)c1` [Compound 447, 6-(((S)-3-fluoropyrrolidin-1-yl)methyl)-2-(3-((R)-1,1,2-trifluoro-1-(4-methyl-4H-1,2,4-triazol-3-yl)propan-2-yl)phenyl)-4-(trifluoromethyl)isoindolin-1-one], in the experiment on T-cell [1], the fold induction at 1 µM is > 1 and the fold induction at 8 µM is > 1. Moreover, in the experiment with T-cell [2], the fold induction at 1 µM was > 0.201 and the fold induction at 8 µM was > 0.201.
Take `Cn1cnnc1C(F)(F)[C@](C)(F)c1cccc(N2Cc3c(cc(CN4CCC(F)(F)C4)cc3C(F)(F)F)C2=O)c1` [Compound 448, (R)-6-((3,3-difluoropyrrolidin-1-yl)methyl)-2-(3-(1,1,2-trifluoro-1-(4-methyl-4H-1,2,4-triazol-3-yl)propan-2-yl)phenyl)-4-(trifluoromethyl)isoindolin-1-one]: the fold induction at 1 µM was in the range of 0.801 to 1 in the experiment with T-cell [1] and 0.101 to 0.15 with T-cell [2]. Also, the fold induction at 8 µM in the experiment on T-cell [1] is > 1; with T-cell [2], > 0.201.
Turning to `Cn1cnnc1CC1(c2cccc(N3Cc4c(cc(CN5CC6(CC6)C5)cc4C(F)(F)F)C3=O)c2)COC1` [Compound 487, 6-{5-azaspiro[2.3]hexan-5-ylmethyl}-2-(3-{3-[(4-methyl-1,2,4-triazol-3-yl)methyl]oxetan-3-yl}phenyl)-4-(trifluoromethyl)-3H-isoindol-1-one], the fold induction at 1 µM with T-cell [1] was > 1; in the experiment with T-cell [2] it was > 0.201.
For `Cn1cnnc1CC1(c2cccc(NC(=O)c3cc(CN4CC[C@H](F)C4)cc(C4CC4)n3)c2)COC1` [Compound 496, 6-cyclopropyl-4-{[(3S)-3-fluoropyrrolidin-1-yl]methyl}-N-(3-{3-[(4-methyl-1,2,4-triazol-3-yl)methyl]oxetan-3-yl}phenyl)pyridine-2-carboxamide], in that order: > 1 and > 0.201.
The matching figures for `C[C@@H](c1cc2c(c(C(F)(F)F)c1)CN(c1cccc(C3(Cc4nncn4C)COC3)c1)C2=O)N1C[C@H]2C[C@H]2C1` [Compound 541a, 6-((1S)-1-(3-azabicyclo[3.1.0]hexan-3-yl)ethyl)-2-(3-(3-((4-methyl-4H-1,2,4-triazol-3-yl)methyl)oxetan-3-yl)phenyl)-4-(trifluoromethyl)isoindolin-1-one]: > 1 and > 0.201.
For `C[C@@H](c1cc2c(c(C(F)(F)F)c1)CN(c1cccc(C3(Cc4nncn4C)COC3)c1)C2=O)N1CCC(C)(F)CC1` [Example 553a, (S)-6-(1-(4-fluoro-4-methylpiperidin-1-yl)ethyl)-2-(3-(3-((4-methyl-4H-1,2,4-triazol-3-yl)methyl)oxetan-3-yl)phenyl)-4-(trifluoromethyl)isoindolin-1-one], in that order: > 1 and > 0.201.
Take `C[C@H](c1cc2c(c(C(F)(F)F)c1)CN(c1cccc(C3(Cc4nncn4C)COC3)c1)C2=O)N1CCC(C)(F)CC1` [Example 553b, (R)-6-(1-(4-fluoro-4-methylpiperidin-1-yl)ethyl)-2-(3-(3-((4-methyl-4H-1,2,4-triazol-3-yl)methyl)oxetan-3-yl)phenyl)-4-(trifluoromethyl)isoindolin-1-one]: the fold induction at 1 µM with T-cell [1] was > 1; in the experiment on T-cell [2], > 0.201.
